In ChEMBL document CHEMBL1255172, “Discovery and structure-activity relationship of a novel spirocarbamate series of NPY Y5 antagonists” (Bioorg Med Chem Lett, 2010):

Tests used:
Cytochrome P450 2C19 = Cytochrome P450 2C19 (Homo sapiens, UniProt P33261); assay: Inhibition of CYP2C19; type: ADME
[1] = Protein binding in rat brain assessed as unbound fraction; type: ADME, tissue-based; conditions: brain tissue
Cytochrome P450 1A2 = molecular target: T1, Cytochrome P450 1A2 (Homo sapiens, UniProt P05177); assay: Inhibition of CYP1A2; type: ADME
T1 sequence (P05177 whole entry): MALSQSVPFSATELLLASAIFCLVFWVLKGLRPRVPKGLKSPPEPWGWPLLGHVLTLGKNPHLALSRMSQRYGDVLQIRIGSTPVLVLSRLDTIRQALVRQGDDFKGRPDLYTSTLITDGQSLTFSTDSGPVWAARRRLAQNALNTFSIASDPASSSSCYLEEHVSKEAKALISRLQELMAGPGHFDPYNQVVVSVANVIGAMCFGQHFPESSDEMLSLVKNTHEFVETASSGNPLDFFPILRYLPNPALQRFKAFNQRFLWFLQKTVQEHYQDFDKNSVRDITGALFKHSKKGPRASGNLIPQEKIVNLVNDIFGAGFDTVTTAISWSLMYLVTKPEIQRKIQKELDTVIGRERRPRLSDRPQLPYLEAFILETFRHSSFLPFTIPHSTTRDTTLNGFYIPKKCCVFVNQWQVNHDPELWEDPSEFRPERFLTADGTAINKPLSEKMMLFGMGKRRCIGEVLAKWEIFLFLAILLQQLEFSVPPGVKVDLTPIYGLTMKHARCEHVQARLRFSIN

Cytochrome P450 3A4 = Cytochrome P450 3A4 (Homo sapiens, UniProt P08684); assay: Inhibition of CYP3A4; type: ADME
Cytochrome P450 2C9 = Cytochrome P450 2C9 (Homo sapiens, UniProt P11712); assay: Inhibition of CYP2C9; type: ADME
Cytochrome P450 2D6 = Cytochrome P450 2D6 (Homo sapiens, UniProt P10635); assay: Inhibition of CYP2D6; type: ADME
[2] = molecular target: T2, Neuropeptide Y receptor type 5 (Homo sapiens, UniProt Q15761); assay: Antagonist activity at human NPY Y5 receptor; type: functional
T2 sequence (Q15761 whole entry): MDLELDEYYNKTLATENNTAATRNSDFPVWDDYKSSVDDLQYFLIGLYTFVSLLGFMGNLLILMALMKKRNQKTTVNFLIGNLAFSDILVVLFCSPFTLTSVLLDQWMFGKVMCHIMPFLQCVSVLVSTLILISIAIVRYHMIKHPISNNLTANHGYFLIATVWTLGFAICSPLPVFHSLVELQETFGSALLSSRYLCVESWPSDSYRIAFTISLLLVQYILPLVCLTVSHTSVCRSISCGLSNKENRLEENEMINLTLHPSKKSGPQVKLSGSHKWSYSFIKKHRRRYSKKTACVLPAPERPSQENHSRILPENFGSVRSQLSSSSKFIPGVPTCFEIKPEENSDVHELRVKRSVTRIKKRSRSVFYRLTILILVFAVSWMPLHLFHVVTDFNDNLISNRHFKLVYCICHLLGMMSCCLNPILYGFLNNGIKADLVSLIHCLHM

[3] = Oral bioavailability in rat at 1 mg/kg; type: ADME, organism-based; conditions: in vivo
[4] = Ratio of drug uptake from blood to brain in rat; type: ADME, tissue-based; conditions: brain and blood
[5] = Clearance in rat blood at 0.5 mg/kg, iv and 1 mg/kg, po; type: ADME, organism-based; conditions: whole blood
Liver microsomes [6] = assay: Intrinsic clearance in human liver microsome; type: ADME
Rattus norvegicus = assay: In vivo antagonist activity at NPY Y5 receptor in orally dosed rat assessed as reduction in food intake; conditions: oral, read-out: MED
Liver microsomes [7] = assay: Intrinsic clearance in rat liver microsome; type: ADME

Cytochrome P450 2C19, sequence (P33261 whole entry): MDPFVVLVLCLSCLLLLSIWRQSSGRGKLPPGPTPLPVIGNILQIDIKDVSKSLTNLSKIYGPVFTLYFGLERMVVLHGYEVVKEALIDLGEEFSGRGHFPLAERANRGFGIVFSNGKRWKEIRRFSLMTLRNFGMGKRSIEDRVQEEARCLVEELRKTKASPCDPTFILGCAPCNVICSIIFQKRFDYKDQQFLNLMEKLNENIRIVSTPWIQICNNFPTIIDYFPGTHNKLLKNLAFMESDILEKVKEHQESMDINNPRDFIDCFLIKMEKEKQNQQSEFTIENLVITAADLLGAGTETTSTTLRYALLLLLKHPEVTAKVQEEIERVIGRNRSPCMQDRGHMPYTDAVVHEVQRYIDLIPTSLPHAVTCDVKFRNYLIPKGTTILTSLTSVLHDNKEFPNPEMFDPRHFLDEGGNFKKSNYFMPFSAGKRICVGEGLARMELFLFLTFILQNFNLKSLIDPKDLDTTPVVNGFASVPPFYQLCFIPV
Cytochrome P450 3A4, sequence (P08684 whole entry): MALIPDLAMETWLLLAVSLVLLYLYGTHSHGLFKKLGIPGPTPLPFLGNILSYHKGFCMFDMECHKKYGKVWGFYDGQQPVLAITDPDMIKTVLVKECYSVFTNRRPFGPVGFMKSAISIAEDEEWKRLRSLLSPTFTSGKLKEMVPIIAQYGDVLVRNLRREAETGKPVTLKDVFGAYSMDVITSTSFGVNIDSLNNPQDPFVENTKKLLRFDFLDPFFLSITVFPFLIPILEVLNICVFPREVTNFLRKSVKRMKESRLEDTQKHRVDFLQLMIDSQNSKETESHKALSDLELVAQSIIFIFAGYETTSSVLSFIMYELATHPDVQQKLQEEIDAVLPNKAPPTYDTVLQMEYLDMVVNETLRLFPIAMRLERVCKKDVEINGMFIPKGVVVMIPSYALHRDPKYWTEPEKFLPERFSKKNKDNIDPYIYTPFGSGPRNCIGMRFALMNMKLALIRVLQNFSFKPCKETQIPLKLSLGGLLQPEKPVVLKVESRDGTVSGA
Cytochrome P450 2D6, sequence (P10635 whole entry): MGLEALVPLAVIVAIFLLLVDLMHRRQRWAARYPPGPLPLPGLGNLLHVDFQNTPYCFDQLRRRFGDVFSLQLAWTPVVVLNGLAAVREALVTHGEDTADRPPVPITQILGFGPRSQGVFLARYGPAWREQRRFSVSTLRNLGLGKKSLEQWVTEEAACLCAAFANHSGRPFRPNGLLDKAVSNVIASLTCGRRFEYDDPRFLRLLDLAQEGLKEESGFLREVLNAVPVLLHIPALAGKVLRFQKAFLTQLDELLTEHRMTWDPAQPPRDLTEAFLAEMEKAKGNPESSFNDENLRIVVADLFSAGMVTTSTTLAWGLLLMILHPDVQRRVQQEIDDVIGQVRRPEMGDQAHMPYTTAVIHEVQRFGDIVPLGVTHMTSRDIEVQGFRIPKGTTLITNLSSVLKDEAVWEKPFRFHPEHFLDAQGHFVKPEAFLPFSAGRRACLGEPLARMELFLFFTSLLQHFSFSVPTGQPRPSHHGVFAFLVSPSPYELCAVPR
Cytochrome P450 2C9, sequence (P11712 whole entry): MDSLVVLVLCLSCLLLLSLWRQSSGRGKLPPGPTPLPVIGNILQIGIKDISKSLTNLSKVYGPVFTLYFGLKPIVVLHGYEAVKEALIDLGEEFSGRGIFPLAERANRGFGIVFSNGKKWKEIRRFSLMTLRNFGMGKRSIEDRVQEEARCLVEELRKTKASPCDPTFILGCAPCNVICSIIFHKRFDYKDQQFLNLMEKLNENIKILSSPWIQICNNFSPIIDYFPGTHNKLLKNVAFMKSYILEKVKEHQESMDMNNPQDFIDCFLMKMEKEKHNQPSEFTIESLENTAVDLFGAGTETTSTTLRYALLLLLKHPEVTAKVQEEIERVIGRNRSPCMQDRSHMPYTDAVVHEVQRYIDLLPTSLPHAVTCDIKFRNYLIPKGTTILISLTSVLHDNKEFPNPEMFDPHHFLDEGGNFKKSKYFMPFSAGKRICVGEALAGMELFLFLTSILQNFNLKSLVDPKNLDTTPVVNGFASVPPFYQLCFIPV

| INH (Cytochrome P450 2C19) [µM] | fraction unbound [1] | INH (Cytochrome P450 1A2) [µM] | INH (Cytochrome P450 3A4) [µM] | INH (Cytochrome P450 2C9) [µM] | INH (Cytochrome P450 2D6) [µM] | Ki [2] [nM] | bioavailability [3] [%] | Kp [4] | clearance [5] [mL/min/kg] | CL (Liver microsomes [6]) [mL/min/g] | CL (Liver microsomes [7]) [mL/min/g] | clearance (Liver microsomes [6]) [mL/min/g] | clearance (Liver microsomes [7]) [mL/min/g] | SMILES | minimal effective dose (Rattus norvegicus) [mg/kg] |
| --- | --- | --- | --- | --- | --- | --- | --- | --- | --- | --- | --- | --- | --- | --- | --- |
| 4 | < 0.01 | 6 | 5 | 1 | > 10 | 0.316 | – | – | – | – | – | – | – | O=C1O[C@]2(CC[C@H](CNc3ncc(-c4ccccc4F)cn3)CC2)CN1c1ccccn1 | – |
| > 10 | 0.052 | > 10 | > 10 | > 10 | > 10 | 0.316 | 50 | 0.4 | 70 | – | – | – | – | O=C1O[C@]2(CC[C@H](CNc3ccc(-c4ncccc4F)cn3)CC2)CN1c1cccnn1 | – |
| 6 | 0.044 | > 10 | 2 | > 10 | > 10 | 0.0398 | – | – | – | – | – | – | – | O=C1O[C@]2(CC[C@H](CNc3cnn(-c4ccccc4F)c3)CC2)CN1c1cncnc1 | – |
| 2 | 0.002 | > 10 | > 10 | 0.3 | > 10 | 0.0251 | – | – | – | – | – | – | – | O=C1O[C@]2(CC[C@H](CNc3cnc(-c4ccccc4F)cn3)CC2)CN1c1ccccn1 | – |
| 3 | 0.01 | > 10 | 3 | 6 | > 10 | 0.0794 | 35 | 0.7 | 30 | 4 | 3.1 | – | – | O=C1O[C@]2(CC[C@H](CNc3nc(-c4ccccn4)cs3)CC2)CN1c1ccccn1 | 10 |
| 2 | 0.016 | 5 | > 10 | 1 | 2 | 0.0631 | – | – | – | – | – | – | – | O=C1O[C@]2(CC[C@H](CNc3ccc(-c4ccccc4F)nn3)CC2)CN1c1ccccn1 | – |
| – | – | > 10 | > 10 | > 10 | > 10 | 0.631 | – | – | – | – | – | – | – | Cc1ncccc1N1C[C@]2(CC[C@@H](CNc3cnn(-c4ccccc4F)c3)CC2)OC1=O | – |
| 8 | 0.025 | > 10 | 1 | 7 | > 10 | 0.1 | – | – | – | – | – | – | – | O=C1O[C@]2(CC[C@H](CNc3cnn(-c4ccccc4F)c3)CC2)CN1c1cccnc1 | – |
| 4 | – | > 10 | > 10 | 2 | > 10 | 0.0316 | – | – | – | – | – | – | – | O=C1O[C@]2(CC[C@H](CNc3ccn(-c4ccccc4F)n3)CC2)CN1c1ccccn1 | – |
| 9 | – | – | 9 | 1 | 2 | 5.01 | – | – | – | – | – | – | – | O=C1O[C@]2(CC[C@H](CNc3ccc(-c4ccccc4F)nc3)CC2)CN1c1ccccn1 | – |
| > 10 | 0.051 | > 10 | > 10 | > 10 | > 10 | 0.0631 | – | – | – | – | – | – | – | Cc1ccccc1-c1ccc(NC[C@H]2CC[C@]3(CC2)CN(c2cccnn2)C(=O)O3)nn1 | – |
| < 0.1 | – | < 0.1 | < 0.1 | < 0.1 | < 0.1 | – | – | – | 27 | – | – | – | – | FC(F)(F)c1ccc(Nc2nc(-c3ccccn3)cs2)cc1 | – |
| 10 | 0.035 | > 10 | > 10 | 5 | > 10 | 0.158 | – | – | – | – | – | – | – | O=C1O[C@]2(CC[C@H](CNc3ccc(-c4ncccn4)cn3)CC2)CN1c1ccccn1 | – |
| 2 | 0.017 | > 10 | 0.6 | 3 | 2 | 0.0631 | – | – | – | – | – | – | – | O=C1O[C@]2(CC[C@H](CNc3cnn(-c4ccccc4F)c3)CC2)CN1c1cnccn1 | – |
| – | 0.031 | > 10 | > 10 | > 10 | > 10 | 0.1 | 52 | 0.9 | 13 | < 0.5 | < 0.5 | – | – | O=C1O[C@]2(CC[C@H](CNc3cnn(-c4ccccc4F)c3)CC2)CN1c1cccnn1 | 3 |
| > 10 | 0.026 | > 10 | 6 | > 10 | > 10 | 0.2 | – | – | – | – | – | – | – | Cc1nnc(N2C[C@]3(CC[C@@H](CNc4cnn(-c5ccccc5F)c4)CC3)OC2=O)s1 | – |
| > 10 | 0.056 | > 10 | > 10 | > 10 | > 10 | 0.251 | – | – | – | – | – | – | – | Cc1cccc(-c2ccc(NC[C@H]3CC[C@]4(CC3)CN(c3cccnn3)C(=O)O4)nc2)n1 | – |
| – | 0.016 | > 10 | > 10 | 8 | > 10 | 0.1 | 75 | 1.6 | 41 | < 0.5 | < 0.5 | – | – | O=C1O[C@]2(CC[C@H](CNc3ccc(-c4cc(F)cc(F)c4)nn3)CC2)CN1c1cccnn1 | 3 |
| > 10 | 0.046 | > 10 | > 10 | > 10 | > 10 | 0.158 | 90 | 0.25 | 18 | < 0.5 | < 0.5 | – | – | O=C1O[C@]2(CC[C@H](CNc3ccc(-c4ccccc4F)nn3)CC2)CN1c1cccnn1 | – |
| > 10 | 0.044 | > 10 | 6 | > 10 | > 10 | 0.2 | – | – | – | – | – | – | – | O=C1O[C@]2(CC[C@H](CNc3cnn(-c4ccccc4F)c3)CC2)CN1c1ccnnc1 | – |
| 5 | 0.005 | > 10 | > 10 | 2 | > 10 | 1 | – | – | – | – | – | – | – | O=C1O[C@]2(CC[C@H](CNc3ccc(C(F)(F)F)cn3)CC2)CN1c1ccccn1 | – |
| 8 | 0.019 | > 10 | 5 | 6 | > 10 | 0.1 | – | – | – | – | – | – | – | O=C1O[C@]2(CC[C@H](CNc3cnn(-c4ccccc4F)c3)CC2)CN1c1cccnc1F | – |
| > 10 | – | > 10 | – | > 10 | > 10 | 1.58 | – | – | – | – | – | – | – | O=C1O[C@]2(CC[C@H](CNc3ccc(-c4ncccn4)cn3)CC2)CN1c1cccnn1 | – |
| > 10 | – | > 10 | > 10 | > 10 | > 10 | – | – | – | – | – | – | 0.6 | 0.5 | O=C(Nc1nc(-c2ccccn2)cs1)N1CCC2(CC1)CN(c1ccccc1)C(=O)O2 | – |
| 3 | – | > 10 | 7 | 0.3 | 1 | 0.126 | – | – | – | – | – | – | – | O=C1O[C@]2(CC[C@H](CNc3ccc(-c4nccs4)cn3)CC2)CN1c1ccccn1 | – |
| 7 | – | > 10 | 3 | 2 | 2 | 0.158 | – | – | – | – | – | – | – | O=C1O[C@]2(CC[C@H](CNc3ccc(OC4CCC4)cn3)CC2)CN1c1ccccn1 | – |
